Experimental data taken from article PMC4779111, “A Human Renal Proximal Tubule Cell Line with Stable Organic Anion Transporter 1 and 3 Expression Predictive for Antiviral-Induced Toxicity” (The AAPS Journal, 2016).
Structures can show the parent of a compound that is named as a salt. Where two headings read alike, the source gives them in different places.

B1: OAT1 (Homo sapiens) (protein)
chain: MAFNDLLQQVGGVGRFQQIQVTLVVLPLLLMASHNTLQNFTAAIPTHHCRPPADANLSKNGGLEVWLPRDRQGQPESCLRFTSPQWGLPFLNGTEANGTGATEPCTDGWIYDNSTFPSTIVTEWDLVCSHRALRQLAQSLYMVGVLLGAMVFGYLADRLGRRKVLILNYLQTAVSGTCAAFAPNFPIYCAFRLLSGMALAGISLNCMTLNVEWMPIHTRACVGTLIGYVYSLGQFLLAGVAYAVPHWRHLQLLVSAPFFAFFIYSWFFIESARWHSSSGRLDLTLRALQRVARINGKREEGAKLSMEVLRASLQKELTMGKGQASAMELLRCPTLRHLFLCLSMLWFATSFAYYGLVMDLQGFGVSIYLIQVIFGAVDLPAKLVGFLVINSLGRRPAQMAALLLAGICILLNGVIPQDQSIVRTSLAVLGKGCLAASFNCIFLYTGELYPTMIRQTGMGMGSTMARVGSIVSPLVSMTAELYPSMPLFIYGAVPVAASAVTVLLPETLGQPLPDTVQDLESRWAPTQKEAGIYPRKGKQTRQQQEHQKYMVPLQASAQEKNGL
B2: OAT3 (Homo sapiens) (protein)
chain: MTFSEILDRVGSMGHFQFLHVAILGLPILNMANHNLLQIFTAATPVHHCRPPHNASTGPWVLPMGPNGKPERCLRFVHPPNASLPNDTQRAMEPCLDGWVYNSTKDSIVTEWDLVCNSNKLKEMAQSIFMAGILIGGLVLGDLSDRFGRRPILTCSYLLLAASGSGAAFSPTFPIYMVFRFLCGFGISGITLSTVILNVEWVPTRMRAIMSTALGYCYTFGQFILPGLAYAIPQWRWLQLTVSIPFFVFFLSSWWTPESIRWLVLSGKSSKALKILRRVAVFNGKKEEGERLSLEELKLNLQKEISLAKAKYTASDLFRIPMLRRMTFCLSLAWFATGFAYYSLAMGVEEFGVNLYILQIIFGGVDVPAKFITILSLSYLGRHTTQAAALLLAGGAILALTFVPLDLQTVRTVLAVFGKGCLSSSFSCLFLYTSELYPTVIRQTGMGVSNLWTRVGSMVSPLVKITGEVQPFIPNIIYGITALLGGSAALFLPETLNQPLPETIEDLENWSLRAKKPKQEPEVEKASQRIPLQPHGPGLGSS

Legend:
OAT1 [1] = target: T1, OAT1 (Homo sapiens, UniProt Q4U2R8); design: method as in PMID 23856525; details: substrate PAH, HeLa-OAT1; read-out: IC50 (literature); cited from earlier work
T1 sequence (Q4U2R8 1-563): B1 chain

OAT1 [2] = target: T1, OAT1; assay: Inhibition of OAT-mediated fluorescein uptake in ciPTEC-OAT1; format: cell-based; design: host or cells: ciPTEC (human conditionally immortalized proximal tubule epithelial cells), lentiviral transduction; details: for Effect on OAT-mediated fluorescein uptake (in words): ciPTEC-OAT1, fluorescein 1 μM, 10 min; for DDI index Cmax/IC50: ciPTEC-OAT1, with the second-listed (higher) Cmax
Description: (§1) All chemicals were obtained from Sigma, unless stated otherwise. Uptake was stopped by washing three times with ice-cold HBSS (4°C).
(§2) Non-linear regression with variable slope constraining the top to 100% was used to fit the data after background subtraction with GraphPad Prism. Statistics was performed by two-way ANOVA (two-tailed, α = 0.05) using GraphPad Prism as well. All data is presented as mean ± SEM of at least three separate experiments (n = 3) performed in triplicate, unless stated otherwise.

hOAT1-CHO and HEK-OAT1 = details: cited from earlier work
[3] = design: method as in PMID 19445515; details: cited from earlier work
ciPTEC-OAT3 = assay: MTT viability assay, ciPTEC-OAT3; format: cell-based, human; details: for Cell viability (MTT), concentration and time dependence: ciPTEC-OAT3, 24, 48 and 72 h
Description: Cell toxicity was analyzed further in presence of MRP and BCRP efflux inhibitors MK571 (5 μM) and KO143 (10 μM).

[4] = plasma, maximal free plasma concentration, 47 (zidovudine), cited from earlier work
ciPTEC-OAT1 = assay: MTT viability assay, ciPTEC-OAT1; format: cell-based, human; details: for Cell viability (MTT): ciPTEC-OAT1, 1 mM, 48 h, serum-free medium; for Cell viability (MTT), concentration and time dependence: ciPTEC-OAT1, 24, 48 and 72 h
[5] = MTT viability assay, ciPTEC-OAT1; format: cell-based, human; details: human, ciPTEC-OAT1 cells (monolayers, 96-well); for IC50 at 24 h: read-out: IC50 on cell viability (MTT), 24 h; for IC50 at 72 h: read-out: IC50 on cell viability (MTT), 72 h
OAT3 [6] = target: T2, OAT3 (Homo sapiens, UniProt Q8TCC7); details: substrate estrone sulfate, Xenopus-OAT3; read-out: IC50 (literature); cited from earlier work
T2 sequence (Q8TCC7 1-542): B2 chain

OAT3 [7] = target: T2, OAT3; assay: Inhibition of OAT-mediated fluorescein uptake in ciPTEC-OAT3
Description: as §1, §2

OAT3 [8] = target: T2, OAT3; assay: OAT3-mediated fluorescein uptake kinetics in ciPTEC-OAT3; format: cell-based; design: host or cells: ciPTEC (human conditionally immortalized proximal tubule epithelial cells), lentiviral transduction; details: n = 4
Description: as §1

OAT1 [9] = target: T1, OAT1; assay: OAT1-mediated fluorescein uptake kinetics in ciPTEC-OAT1; format: cell-based; design: host or cells: ciPTEC (human conditionally immortalized proximal tubule epithelial cells), lentiviral transduction
Description: as §1

[10] = substrate: O=C1OC2(c3ccc(O)cc3Oc3cc(O)ccc32)c2ccccc21; assay: cells, lysate or membranes; details: other: fluorescein uptake, 10 min, Michaelis-Menten with linear diffusion, mean ± SEM, n = 4; 37.0 °C
[11] = 120 h, OAT1 overexpression cells, read-out: IC50 on cell viability (literature), 120 h
[12] = read-out: IC50 on cell viability (literature), 48 h, OAT1 overexpression cells
[13] = first-listed (lower) value per drug, ref 40 (adefovir), 42 (cidofovir), 45 (tenofovir)
[14] = second-listed (higher) value per drug, ref 41 (adefovir), 43 (cidofovir), 46 (tenofovir)

Row | Molecule | IC50 (OAT1 [2]) [µM] | Effect on OAT-mediated fluorescein uptake (in words) (OAT1 [2]) | IC50 (hOAT1-CHO and HEK-OAT1; [11]) [µM] | IC50 (hOAT1-CHO and HEK-OAT1; [12]) [µM] | Renal excretion of unchanged drug (in words) [3] | Cell viability (MTT), concentration and time dependence (ciPTEC-OAT3) | Cmax [4, 13] [µM] | Cmax [4, 14] [µM] | Cell viability (MTT) (ciPTEC-OAT1) | Cell viability (MTT), concentration and time dependence (ciPTEC-OAT1) | IC50 at 48 h [5] [µM] | IC50 at 24 h [5] [µM] | IC50 at 72 h [5] [µM] | further results
1 | C[C@H](Cn1cnc2c(N)ncnc21)OCP(=O)(O)O [Tenofovir, tenofovir] | 42 ± 8 | Concentration-dependent inhibition | 21 ± 7 | 10 ± 2 | largely excreted unchanged by the kidneys | less pronounced | 0.52 | 0.72 | significantly affected cell viability | concentration- and time-dependent decrease in viability | 189 ± 48 | 114 ± 25 | 223 ± 67 | IC50 (OAT1 [1]): 29.3 µM; DDI index Cmax/IC50 (OAT1 [2]): 0.019; Cell viability (MTT) (ciPTEC-OAT3; ciPTEC-OAT3, 1 mM, 48 h, serum-free medium): slightly decreased
2 | C[C@]12CC[C@@H]3c4ccc(OS(=O)(=O)O)cc4CC[C@H]3[C@@H]1CCC2=O [Estrone sulfate, estrone sulfate] | – | – | – | – | – | – | – | – | – | – | – | – | – | IC50 (OAT3 [6]): 3 µM; IC50 (OAT3 [7]; read-out: IC50 of fluorescein uptake, ciPTEC-OAT3, fluorescein 1 μM, 10 min, HBSS 37°C, mean ± SEM, n = 4, cimetidine: apparent IC50 due to partial inhibition): 2.1 ± 0.3 µM
3 | Nc1ncnc2c1ncn2CCOCP(=O)(O)O [Adefovir, adefovir] | 23 ± 4 | Concentration-dependent inhibition | 1.4 ± 0.7 | 0.22 ± 0.08 | largely excreted unchanged by the kidneys | less pronounced | 1.6 | 38.8 | significantly affected cell viability | concentration- and time-dependent decrease in viability | 303 ± 38 | 462 ± 52 | 230 ± 37 | IC50 (OAT1 [1]): 8.1 µM; DDI index Cmax/IC50 (OAT1 [2]): 4.2
4 | Nc1ccn(C[C@@H](CO)OCP(=O)(O)O)c(=O)n1 [Cidofovir, cidofovir] | 71 ± 34 | Concentration-dependent inhibition | 3 ± 1 | 0.5 ± 0.2 | largely excreted unchanged by the kidneys | less pronounced | 15.8 | 26.3 | significantly affected cell viability | concentration- and time-dependent decrease in viability | 130 ± 58 | 613 ± 384 | 69 ± 2 | –
5 | Nc1ccc(C(=O)NCC(=O)O)cc1 [Para-aminohippuric acid, para-aminohippuric acid] | – | – | – | – | – | – | – | – | – | – | – | – | – | IC50 (OAT3 [7]): 152 ± 3 µM; Fluorescein uptake by flow cytometry in presence of inhibitor (OAT3 [7]; transduced ciPTEC-OAT3, fluorescein 1 μM, 10 min, inhibitor 100 μM): sensitive to para-aminohippuric acid-induce inhibition
6 | O=C1OC2(c3ccc(O)cc3Oc3cc(O)ccc32)c2ccccc21 [Fluorescein, fluorescein] | – | – | – | – | – | – | – | – | – | – | – | – | – | Vmax (OAT3 [8]; fluorescein uptake, 10 min): 384 ± 103 RFU; Kd (OAT3 [8]; passive diffusion component kd of fluorescein uptake): 4.3 ± 0.9 RFU*L/μmol; Vmax (OAT1 [9]; fluorescein uptake, 10 min, n = 4): 695 ± 84 RFU; Fluorescein affinity for OAT1 relative to OAT3 (OAT1 [9]; from Km values of Table I): approximately fivefold higher; Kd (OAT1 [9]; passive diffusion component kd of fluorescein uptake, n = 4): 2.4 ± 1.2 RFU*L/μmol
7 | B1 | – | – | – | – | – | – | – | – | – | – | – | – | – | Km [10]: 0.8 ± 0.1 µM
8 | B2 | – | – | – | – | – | – | – | – | – | – | – | – | – | Km [10]: 3.7 ± 0.5 µM
